Assay results from patent US5179117A, “Antihypercholesterolemic 2-substituted imidazoles” (Du Pont Merck Pharmaceutical Company, priority 1991, dated 1993).
Where a name gives a salt, the structure may show the parent alone.

Target: T1, acyl-CoA: cholesterol acyltransferase (ACAT) (Mus musculus, UniProt Q61263)
T1 construct: endogenous in cells; host or cells: J774.A1 murine macrophage-like cells
T1 sequence (Q61263 1-540): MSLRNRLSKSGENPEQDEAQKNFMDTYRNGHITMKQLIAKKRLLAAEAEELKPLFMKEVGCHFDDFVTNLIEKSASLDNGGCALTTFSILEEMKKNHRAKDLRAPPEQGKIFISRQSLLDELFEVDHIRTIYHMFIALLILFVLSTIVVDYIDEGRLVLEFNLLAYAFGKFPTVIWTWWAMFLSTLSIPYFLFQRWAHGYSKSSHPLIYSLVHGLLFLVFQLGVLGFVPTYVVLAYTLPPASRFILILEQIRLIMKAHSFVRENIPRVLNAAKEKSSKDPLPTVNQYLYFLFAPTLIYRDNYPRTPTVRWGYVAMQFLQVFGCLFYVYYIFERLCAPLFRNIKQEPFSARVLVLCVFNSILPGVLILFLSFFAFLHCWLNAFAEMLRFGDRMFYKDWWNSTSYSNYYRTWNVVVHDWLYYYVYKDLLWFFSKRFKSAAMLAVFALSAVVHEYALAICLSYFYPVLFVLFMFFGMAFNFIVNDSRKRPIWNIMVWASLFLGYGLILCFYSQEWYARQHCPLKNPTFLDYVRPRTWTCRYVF
Assay: Assay of the inhibition of cholesterol esterification in mammalian cells (J774.A1 macrophages, 14C-oleic acid incorporation into cholesteryl ester, ac-LDL loaded)
Type: cell-based
Conditions: murine macrophage-like cell line J774.A1, ac-LDL loaded, 14C-oleic acid pulse; read-out: Cholesterol Esterification IC50 (concentration at which ACAT activity is inhibited by 50%)
Experimental: The esterification of cholesterol was determined in the murine macrophage-like cell line J774.A1. Cells were seeded in 35 mm wells at a density of 300,000 cells per well in 2 mls of Dulbecco's Eagle Medium (DMEM) supplemented with 10% fetal bovine serum (FBS). Cells were incubated at 37° C. in an atmosphere of 5% CO2 and 93% humidity. After 24 hours the media was changed to 0.68 mls 10% FBS-DMEM containing 34 μg of acetylated human low density lipoprotein (ac-LDL) to increase the intracellular concentration of cholesterol and promote esterification. At 41 hours, various inhibitors were added to the cells in DMSO (10 μl/ml maximum). At 43 hours, the cells were pulsed with 0.1 mM ^14 C-oleic acid (10,000 dpm/nmol) complexed with BSA (bovine serum albumin) to follow cholesterol ester formation. The experiment was terminated at 45 hours by washing the monolayers 3 time with 3 ml of Tris-buffered saline at 4° C. The lipids were extracted by incubating the monolayers with 1.5 ml of hexane: isopropanol (3:2, v/v) for 30 min. under gentle agitation. During this period, 10,000 dpm ^3 H-cholesteryl linoleate and 10 μg of cholesteryl oleate were added as an internal standard and carrier respectively. The organic solvent was removed and the cells were washed with an additional 1.0 ml of hexane: isopropanol which was combined with the original extract. The cells were allowed to dry overnight, digested with 1.5 ml of 0.2N sodium hydroxide for 1 hour and an aliquot of the solubilized protein used for protein determination using the Lowry method. The organic extract was taken to dryness, the residue resuspended in 100 μl of chloroform and the lipids separated on silica gel impregnated glass fiber plates using a hexane: diethylether: acetic acid (170:30:1, v/v/v) solvent system. Individual lipids were visualized with iodine and the cholesteryl ester spot cut out and transferred to scintillation vials to determine the amount of radioactivity. The conversion of oleic acid to cholesteryl ester in the control averaged […]/hour/mg protein and was increased upon the addition of ac-LDL to about […]/hour/mg protein. The inhibition of esterification by the compounds is shown in Table 2; the data are expressed as the concentration at which ACAT activity is inhibited by 50% (IC50).

In order of rising IC50:
1. COC(=O)[C@H](CCCCNC(=O)OCc1ccccc1)NC(=O)CCCSc1nc(-c2ccc(N(C)C)cc2)c(-c2ccc(N(C)C)cc2)[nH]1 [Example 8, N2-[4-[4,5-bis[4-(dimethylamino)phenyl] -1H-imidazol-2-ylthio]-1-oxobutyl]-N6-[(phenylmethoxy)carbonyl]-L-lysine, methylester]  0.0049 µM
2. COC(=O)[C@H](CCCCNC(=O)OCc1ccccc1)NC(=O)CCCSc1nc(-c2ccc(OC)cc2)c(-c2ccc(OC)cc2)[nH]1 [Example 1, N2-[4-[4,5-bis(4-methoxyphenyl)-1H-imidazol-2-ylthio]-1-oxobutyl]-N6-[(phenylmethoxy)carbonyl]-L-lysine, methyl ester]  0.037 µM
3. COC(=O)[C@H](CCCCNC(=O)C12CC3CC(CC(C3)C1)C2)NC(=O)CCCSc1nc(-c2ccc(OC)cc2)c(-c2ccc(OC)cc2)[nH]1 [Example 3, N6-(1-adamantylcarbonyl)-N2-[4-[4,5-bis(4-methoxyphenyl)-1H-imidazol-2-ylthio]-1-oxobutyl]-L-lysine, methyl ester]  0.386 µM
4. COC(=O)[C@H](CCCCNC(=O)NCc1ccccc1)NC(=O)CCCSc1nc(-c2ccc(OC)cc2)c(-c2ccc(OC)cc2)[nH]1 [Example 4, N2-[4-[4,5-bis(4-methoxyphenyl)-1H-imidazol-2-ylthio]-1-oxobutyl]-N6-[(phenylmethyl)-aminocarbonyl]-L-lysine, methyl ester]  0.601 µM
5. CCCC[C@H](NC(=O)CCCSc1nc(-c2ccc(OC)cc2)c(-c2ccc(OC)cc2)[nH]1)C(=O)OC [Example 9, N-[4-[4,5-bis(4-methoxyphenyl)-1H-imidazol-2-ylthio]-1-oxobutyl]-norleucine, methyl ester]  0.65 µM
6. COc1ccc(-c2nc(SCCCC(=O)N[C@@H](CCCCNC(=O)OCc3ccccc3)C(=O)NC(C)C)[nH]c2-c2ccc(OC)cc2)cc1 [Example 7, phenylmethyl, (S)-[5-[[4-[4,5-bis(4-methoxyphenyl)-1H-imidazol-2-ylthio]-1-oxobutyl]amino]-6-[(1-methylethyl)amino]-6-oxohexyl]carbamate]  1.1 µM
7. CCCCCC(=CCCCCSc1nc(-c2ccccc2)c(-c2ccccc2)[nH]1)C(=O)OCC [Example 10, ethyl, 7-(4,5-diphenyl-1H-imidazol-2-ylthio)-2-pentyl-2-heptenoate]  4.62 µM
8. COC(=O)[C@H](CCCCNC(C)=O)NC(=O)CCCSc1nc(-c2ccc(OC)cc2)c(-c2ccc(OC)cc2)n1C(C)=O [Example 5, N6-acetyl-N2-[4-[1-acetyl-4,5-bis(4-methoxyphenyl)-1H-imidazol-2-ylthio]-1-oxobutyl]-L-lysine, methyl ester]  7.15 µM
9. COC(=O)[C@H](CCCCNC(C)=O)NC(=O)CCCSc1nc(-c2ccc(OC)cc2)c(-c2ccc(OC)cc2)[nH]1 [Example 6, N6-acetyl-N2-[4-[4,5-bis(4-methoxyphenyl)-1H-imidazol-2-ylthio]-1-oxobutyl]-L-lysine, methyl ester]  10.3 µM
10. CCCCCC(=CCCCCSc1nc(-c2ccccc2)c(-c2ccccc2)[nH]1)C(=O)O [Example 11, 7-(4,5-diphenyl-1H-imidazol-2-ylthio)-2-pentyl-2-heptenoic acid]  13.4 µM
11. COC(=O)[C@H](CCCCN)NC(=O)CCCSc1nc(-c2ccc(OC)cc2)c(-c2ccc(OC)cc2)[nH]1 [Example 2, N2-[4-[4,5-bis(4-methoxyphenyl)-1H-imidazol-2-ylthio]-1-oxobutyl]-L-lysine, methyl ester hydrobromide]  100 µM
